From patent publication US12084420B2, “Indoline compounds for inhibiting KIF18A” (Volastra Therapeutics, Inc., priority 2021, dated 2024)
pIC50, pKi: −log10 of the molar value.

What was measured:
hKIF18A (1-374) = hKIF18A (1-374) (Homo sapiens (Human), UniProt Q8NI77); experiment: Inhibition of KIF18A microtubule-dependent ATPase activity (ADP-Glo); details: KIF18A microtubule-dependent ATPase activity, biochemical assay
Description: Biological Assays Inhibition of KIF18A Microtubule-Dependent ATPase Activity:
Test compounds were plated in a 3× dilution scheme in a 384-well plate. Assay buffer: 80 mM PIPES (pH 6.9), 1 mM MgCl2, 75 mM KCl, 1 mM EGTA, 1 mM DTT, 0.01% BSA, 0.005% Tween-20, 1 μM Taxol in H2O. […] After incubation at room temperature for 30 min, 2.5 μL of microtubule mix was added [0.2 mg/mL pre-formed microtubules, 2.0 mM ATP in assay buffer], the plate was centrifuged for 30 s and then incubated at 28° C. for 60 min. 5 μL of Promega® ADP-Glo Max R1 was added, the plate was centrifuged for 30 s, and the mixture incubated for 4 h at room temperature. 10 μL of Promega® ADP-Glo Max R2 was added, the plate centrifuged for 30 s, and incubated for 60 min at room temperature. Luminescence was measured with an Envision plate reader, and % Inhibition was calculated for each well as: ([max−min]−[test−min])/[max−min]. IC50 values were calculated from concentration vs. % Inhibition data via a four-parameter variable slope model.

[1] = biological target: KIF18a-Microtubule Complex (Homo sapiens (Human), UniProt Q8NI77); experiment: Binding kinetics to KIF18a-microtubule complex (global progress curve analysis); details: for kon (on-rate from binding kinetics assay) / koff (off-rate from binding kinetics assay): global progress curve analysis; for pKi: read-out: KI (determined from binding kinetic assay koff/kon), koff/kon; for koff: read-out: koff (off-rate from binding kinetics assay)
Description: Binding Kinetics to KIF18a-Microtubule Complex
Compound binding kinetics parameters (kon and koff) were determined by the method of global progress curve analysis (GPCA). […] ADP product levels were determined by the Promega® ADP-Glo assay. The time/dose-dependent progress curves were then globally fit to a Michaelis-Menten kinetics model with 1-step slow binding inhibition to derive both on-rate kon and off-rate koff values (Zhang, R., Wong, K. (2017): “High performance enzyme kinetics of turnover, activation and inhibition for translational drug discovery”, Expert Opinion on Drug Discovery, 2017 January; 12(1):17-37. doi: 10.1080/17460441.2017.1245721).

HCC15 cells = experiment: Cell viability of KIF18a-sensitive cell lines, HCC15 (Cell Titre-Glo, 7 days); type: cell-based; details: HCC15, 168 h, read-out: HCC-15 IC50
Description: Cell Viability of KIF18a-Sensitive Cell Lines
Cell lines were seeded as follows 24 hours before compound treatment: HCC15 (Korean Cell Line Bank) 600 cell/well, 95 μL of RPMI-1640 media supplemented with 100 units/mL penicillin, 100 units/mL streptomycin and 10% FBS; NIH:OVCAR-3 (ATCC), 1000 cell/well, 95 μL of RPMI-1640 media supplemented with 100 units/mL penicillin, 100 units/mL streptomycin, 0.01 mg/mL bovine insulin, and 20% FBS; JIMT-1 (Addexbio) 1000 cell/well, 95 μL of DMEM media supplemented with 100 units/mL penicillin, 100 units/mL streptomycin, and 10% FBS.
Test compounds were added to cells in a 20× dilution scheme by adding 5 μL of serially diluted compound to the plate, and the treated cells were incubated for an additional 7 days in a 37° C., 5% CO2 incubator. DMSO was used as the negative control (0% effect), and wells omitting cells were used as the positive control (100% effect). The cells were incubated for seven days, and cell viability determined via the Promega Cell Titre-Glo® Assay kit. Luminescence units were converted to ATP concentrations via an ATP standard curve (10 point, 2-fold dilution from 5 uM). % Inhibition was calculated for each well as: ([max−min]−[test−min])/[max−min]. IC50 values were calculated from concentration vs. % Inhibition data via a four-parameter variable slope model.

hKIF18A (1-374), sequence (Q8NI77 whole entry, looked up): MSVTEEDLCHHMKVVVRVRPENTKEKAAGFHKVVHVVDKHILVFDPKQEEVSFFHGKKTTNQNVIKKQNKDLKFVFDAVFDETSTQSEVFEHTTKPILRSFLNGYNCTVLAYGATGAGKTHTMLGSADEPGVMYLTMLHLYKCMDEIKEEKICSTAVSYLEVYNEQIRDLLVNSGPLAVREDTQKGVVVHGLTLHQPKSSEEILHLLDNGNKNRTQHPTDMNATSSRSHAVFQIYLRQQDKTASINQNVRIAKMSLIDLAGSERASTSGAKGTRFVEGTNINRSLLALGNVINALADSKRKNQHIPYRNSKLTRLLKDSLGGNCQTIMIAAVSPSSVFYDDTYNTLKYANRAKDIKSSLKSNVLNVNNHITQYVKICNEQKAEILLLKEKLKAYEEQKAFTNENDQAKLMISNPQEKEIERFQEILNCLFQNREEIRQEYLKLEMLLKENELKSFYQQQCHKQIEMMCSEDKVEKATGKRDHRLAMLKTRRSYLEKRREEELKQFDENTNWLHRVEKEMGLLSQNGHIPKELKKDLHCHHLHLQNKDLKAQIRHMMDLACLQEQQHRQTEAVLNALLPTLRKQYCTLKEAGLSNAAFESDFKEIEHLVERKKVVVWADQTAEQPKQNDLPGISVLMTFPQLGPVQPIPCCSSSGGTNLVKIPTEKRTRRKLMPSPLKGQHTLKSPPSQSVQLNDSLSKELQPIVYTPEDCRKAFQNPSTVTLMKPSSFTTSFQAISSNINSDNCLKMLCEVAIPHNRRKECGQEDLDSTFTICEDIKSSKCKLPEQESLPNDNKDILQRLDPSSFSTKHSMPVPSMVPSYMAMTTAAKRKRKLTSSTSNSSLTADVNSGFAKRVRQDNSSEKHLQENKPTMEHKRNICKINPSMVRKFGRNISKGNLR
hKIF18A (1-374), sequence (Q2XVP4 whole entry partner, looked up): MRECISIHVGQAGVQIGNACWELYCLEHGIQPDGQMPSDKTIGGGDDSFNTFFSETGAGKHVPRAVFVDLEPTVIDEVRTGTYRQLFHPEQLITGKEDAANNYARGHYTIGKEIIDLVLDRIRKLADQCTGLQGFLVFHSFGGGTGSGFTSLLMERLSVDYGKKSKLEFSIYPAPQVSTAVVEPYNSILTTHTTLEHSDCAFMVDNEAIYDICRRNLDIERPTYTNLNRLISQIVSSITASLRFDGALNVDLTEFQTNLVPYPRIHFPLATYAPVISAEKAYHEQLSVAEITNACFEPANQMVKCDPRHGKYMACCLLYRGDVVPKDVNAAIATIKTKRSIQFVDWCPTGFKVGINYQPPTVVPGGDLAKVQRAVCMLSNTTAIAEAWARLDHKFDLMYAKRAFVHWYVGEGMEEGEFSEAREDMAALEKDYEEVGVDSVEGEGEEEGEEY
hKIF18A (1-374), sequence (P02554 whole entry partner, looked up): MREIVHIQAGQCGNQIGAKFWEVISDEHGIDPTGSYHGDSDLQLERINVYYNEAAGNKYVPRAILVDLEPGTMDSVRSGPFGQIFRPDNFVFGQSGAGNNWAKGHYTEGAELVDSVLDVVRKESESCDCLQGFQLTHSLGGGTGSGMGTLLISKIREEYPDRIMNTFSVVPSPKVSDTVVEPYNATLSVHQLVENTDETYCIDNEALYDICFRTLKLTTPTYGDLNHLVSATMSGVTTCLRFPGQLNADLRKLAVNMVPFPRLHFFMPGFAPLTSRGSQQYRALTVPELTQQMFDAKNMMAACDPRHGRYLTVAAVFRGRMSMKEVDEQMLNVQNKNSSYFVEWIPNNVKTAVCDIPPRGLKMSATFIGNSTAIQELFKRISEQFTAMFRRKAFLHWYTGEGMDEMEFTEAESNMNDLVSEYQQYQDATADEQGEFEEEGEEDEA
KIF18a-Microtubule Complex, sequence (Q8NI77 whole entry, looked up): as the sequence (Q8NI77 whole entry, looked up) above
KIF18a-Microtubule Complex, sequence (Q2XVP4 whole entry partner, looked up): as the sequence (Q2XVP4 whole entry partner, looked up) above
KIF18a-Microtubule Complex, sequence (P02554 whole entry partner, looked up): as the sequence (P02554 whole entry partner, looked up) above

SMILES	pIC50 (hKIF18A (1-374))	kon (on-rate from binding kinetics assay) [1] [M⁻¹ s⁻¹]	disc. t1/2 (dissociation half-life ln(2)/koff) [1] [h]	pKi [1]	koff [1] [s⁻¹]	koff (off-rate from binding kinetics assay) [1] [s⁻¹]	pIC50 (HCC15 cells)
CCS(=O)(=O)Nc1ccc2c(c1)C1(CCC3(CC3)CC1)CN2C(=O)c1cc(S(=O)(=O)NC(C)(C)C)cs1 [Compound 269, N-(tert-butyl)-5-(5″- (ethylsulfonamido)dispiro[cyclopropane-1,1′-cyclohexane-4′,3″-indoline]-1″- carbonyl)thiophene-3-sulfonamide]	7.10	5560	8.7	8.40	2.22e-05		
CS(=O)(=O)Nc1ccc2c(c1)C1(CCC3(CC3)CC1)CN2C(=O)c1cccc([C@H](O)C2CCCC2)n1 (single isomer, unassigned) [Compound 317b]	8.00	16400	2.0	8.23		9.72e-05	
CS(=O)(=O)Nc1ccc2c(c1)C1(CCC3(CC3)CC1)CN2C(=O)c1cccc(S(=O)(=O)N2CC[C@@H](F)C2)c1 [(R)-Compound 239, (R)-N-(1″-(3-((3-fluoropyrrolidin-1-yl)sulfonyl)benzoyl)dispiro[cyclopropane-1,1′-cyclohexane-4′,3″-indolin]-5″- yl)methanesulfonamide]	8.03	16700	8.1	8.85	2.39e-05		
CC(C)(C)NS(=O)(=O)c1cccc(C(=O)N2C[C@]3(CC[C@H](C(F)F)CC3)c3cc(NS(C)(=O)=O)ccc32)c1 [Compound 162a]	7.82	8060	13	8.72		1.53e-05	
CS(=O)(=O)Nc1ccc2c(c1)C1(CCC3(CC3)CC1)CN2C(=O)c1cccc(S(=O)(=O)N2CC3C(C2)C3(F)F)c1 (stereo not drawn) [Compound 237, N-(1″-(3-((6,6-difluoro-3-azabicyclo[3.1.0]hexan-3-yl)sulfonyl)benzoyl)dispiro[cyclopropane-1,1′-cyclohexane-4′,3″-indolin]-5″- yl)methanesulfonamide]	7.96	22800	19	9.36	1e-05		
CC(C)(C)NS(=O)(=O)c1cccc(C(=O)N2CC3(CCC(F)(F)CC3)c3cc(NS(C)(=O)=O)ccc32)c1 [Compound 144, N-(tert-butyl)-3-(4,4-difluoro-5′-(methylsulfonamido)spiro[cyclohexane-1,3′-indoline]-1′-carbonyl)benzenesulfonamide]	7.29	4170	5.2	8.03	3.89e-05		
CS(=O)(=O)Nc1ccc2c(c1)C1(CCC3(CC3)CC1)CN2C(=O)c1cccc([C@@H](O)C2CCCC2)n1 (single isomer, unassigned) [Compound 317a]	7.96	9170	2.1	8.00		9.17e-05	
CC(C)(C)NS(=O)(=O)c1cc(C(=O)N2CC3(CCC4(CC4)CC3)c3cc(NS(C)(=O)=O)ccc32)cs1 [Compound 262, N-(tert-butyl)-4-(5″- (methylsulfonamido)dispiro[cyclopropane-1,1′-cyclohexane-4′,3″-indoline]-1″-carbonyl)thiophene-2-sulfonamide]	8.23	8890	6.7	9.51	2.86e-05		
O=C(c1cccc(S(=O)(=O)N2CCC(F)(F)CC2)c1)N1CC2(CCCC2)c2cc(NS(=O)(=O)CCO)ccc21 [Compound 27, N-(1′-(3-((4,4-difluoropiperidin-1-yl)sulfonyl)benzoyl)spiro[cyclopentane-1,3′-indolin]-5′-yl)-2-hydroxyethane-1-sulfonamide]							6.85
CS(=O)(=O)Nc1ccc2c(c1)C1(CCCCC1)CN2C(=O)c1cccc(S(=O)(=O)N2CC3(CCC3)C2)c1 [Compound 129, N-(1′-(3-((2-azaspiro[3.3]heptan-2-yl)sulfonyl)benzoyl)spiro[cyclohexane-1,3′-indolin]-5′-yL)methanesulfonamide]	7.35	12200	2.5	8.20	7.78e-05		
CS(=O)(=O)Nc1ccc2c(c1)C1(CCC3(CC3)CC1)CN2C(=O)c1cccc([C@H](O)C2CC(F)(F)C2)c1 (single isomer, unassigned) [Compound 351a]	8.06	19400	1.7	8.24		0.000114	
CC(C)(C)NS(=O)(=O)c1cc(C(=O)N2CC3(CCC4(CC4)CC3)c3cc(NS(C)(=O)=O)ccc32)ccc1O [Compound 298, N-(tert-butyl)-2-hydroxy-5-(5″-(methylsulfonamido)dispiro[cyclopropane-1,1′-cyclohexane-4′,3″-indoline]-1″-carbonyl)benzenesulfonamide]	8.08	19700	26	9.42	7.5e-06		
CS(=O)(=O)Nc1ccc2c(c1)C1(CCC3(CC3)CC1)CN2C(=O)c1cccc(S(=O)(=O)C2CCCC2)c1 [Compound 155, N-(1″-(3-(cyclopentylsulfonyl)benzoyl)dispiro [cyclopropane-1,1′-cyclohexane-4′,3″- indolin]-5″-yl)methanesulfonamide]	8.13	30600	6.5	8.70	3.06e-05		
CC1=CCC2(CC1)CN(C(=O)c1cccc(S(=O)(=O)NC(C)(C)C)c1)c1ccc(NS(C)(=O)=O)cc12 (stereo not drawn) [Compound 295, N-(tert-butyl)-3-(4-methyl-5′-(methylsulfonamido)spiro[cyclohexane-1,3′-indolin]-3-en-1′-carbonyl)benzenesulfonamide]	7.42						
CS(=O)(=O)Nc1ccc2c(c1)[C@]1(CC[C@@H](C(F)F)CC1)CN2C(=O)c1cccc(S(=O)(=O)NC23CC(C2)C3)c1 [Compound 336a]	8.07						
C=C1CC(NS(=O)(=O)c2cccc(C(=O)N3CC4(CCC5(CC5)CC4)c4cc(NS(C)(=O)=O)ccc43)c2)C1 [Compound 190, N-(3-methylenecyclobutyl)-3-(5″- (methylsulfonamido)dispiro[cyclopropane-1,1′-cyclohexane-4′,3″-indoline]-1″-carbonyl)benzenesulfonamide]	8.32						
CCS(=O)(=O)Nc1ccc2c(c1)[C@]1(CC[C@H](C(F)F)CC1)CN2C(=O)c1cccc(S(=O)(=O)NC(C)(C)C)c1 [Compound 333b]	7.48	3890	63	9.11		3.06e-06	
CC1(NS(=O)(=O)c2cccc(C(=O)N3CC4(CCC5(CC5)CC4)c4cc(NS(C)(=O)=O)ccc43)c2)CC(F)(F)C1 [Compound 224, N-(3,3-difluoro-1-methylcyclobutyl)-3-(5″- (methylsulfonamido)dispiro[cyclopropane-1,1′-cyclohexane-4′,3″-indoline]-1″-carbonyl)benzenesulfonamide]	7.64						
CS(=O)(=O)Nc1ccc2c(c1)C1(CCCCC1)CN2C(=O)c1cccc(S(=O)(=O)N2CCC(F)C2)c1 (stereo not drawn) [Compound 83, N-(1′-(3-((3-fluoropyrrolidin-1-yl)sulfonyl)benzoyl)spiro[cyclohexane-1,3′-indoline]-5′-yl)methanesulfonamide]	6.89						
CN(c1cccc(C(=O)N2CC3(CCC4(CC4)CC3)c3cc(NS(C)(=O)=O)ccc32)c1)C1CCCC1 [Compound 348, N-(1″-(3-(cyclopentyl(methyl)amino)benzoyl)dispiro[cyclopropane-1,1′-cyclohexane-4′,3″-indolin]-5″- yl)methanesulfonamide]	6.72						
